{
  "source": "patent US10112941B2",
  "about": "“Tricyclic compounds as anticancer agents” (BRISTOL-MYERS SQUIBB COMPANY, priority 2013, dated 2018)",
  "data": [
    {"target": "BRD4 (Homo sapiens, UniProt O60885)", "test": "Time Resolved Fluorescence Resonance Energy Transfer (TR-FRET) binding assay, BRD4", "conditions": "one of the FRET assays described; read-out: FRET BRD4 IC50", "units": {"IC50": "nM"}, "values": [
      {"smiles": "Cc1noc(C)c1-c1cnc2c3ccc(C(C)(C)O)cc3n(C(c3c(F)cccc3F)C3CCOCC3)c2c1", "note": "(single isomer, unassigned) [Example 143, 2-{5-[(2,6-Difluorophenyl)(oxan-4-yl)methyl]-3-(dimethyl-1,2-oxazol-4-yl)-5H-pyrido[3,2-b]indol-7-yl}propan-2-ol]", "IC50": "< 5"},
      {"smiles": "Cc1noc(C)c1-c1cnc2c3ccc(C(C)(C)O)cc3n(C(c3c(F)cccc3F)C3CCOCC3)c2c1", "note": "(single isomer, unassigned) [Example 144, 2-{5-[(2,6-Difluorophenyl)(oxan-4-yl)methyl]-3-(dimethyl-1,2-oxazol-4-yl)-5H-pyrido[3,2-b]indol-7-yl}propan-2-ol]", "IC50": "< 5"},
      {"smiles": "Cc1noc(C)c1-c1cnc2c3ccc(C(C)(C)O)cc3n(C(c3cccc(F)c3F)C3CCOCC3)c2c1", "note": "(single isomer, unassigned) [Example 145, 2-{5-[(2,3-Difluorophenyl)(oxan-4-yl)methyl]-3-(dimethyl-1,2-oxazol-4-yl)-5H-pyrido[3,2-b]indol-7-yl}propan-2-ol]", "IC50": "< 5"},
      {"smiles": "Cc1noc(C)c1-c1cnc2c3ccc(C(C)(C)O)cc3n(C(c3cccc(F)c3F)C3CCOCC3)c2c1", "note": "(single isomer, unassigned) [Example 146, 2-{5-[(2,3-Difluorophenyl)(oxan-4-yl)methyl]-3-(dimethyl-1,2-oxazol-4-yl)-5H-pyrido[3,2-b]indol-7-yl}propan-2-ol]", "IC50": "< 5"},
      {"smiles": "Cc1noc(C)c1-c1cnc2c3ccc(C(C)(C)O)cc3n(C(c3cccc(F)c3)C3CCOCC3)c2c1", "note": "(single isomer, unassigned) [Example 147, 2-[3-(Dimethyl-1,2-oxazol-4-yl)-5-[(3-fluorophenyl)(oxan-4-yl)methyl]-5H-pyrido[3,2-b]indol-7-yl]propan-2-ol]", "IC50": "< 5"},
      {"smiles": "Cc1noc(C)c1-c1cnc2c3ccc(C(C)(C)O)cc3n(C(c3cccc(F)c3)C3CCOCC3)c2c1", "note": "(single isomer, unassigned) [Example 148, 2-[3-(Dimethyl-1,2-oxazol-4-yl)-5-[(3-fluorophenyl)(oxan-4-yl)methyl]-5H-pyrido[3,2-b]indol-7-yl]propan-2-ol]", "IC50": "< 25"},
      {"smiles": "Cc1noc(C)c1-c1cnc2c3ccc(C(C)(C)O)cc3n(C(c3ccccc3F)C3CCOCC3)c2c1", "note": "(single isomer, unassigned) [Example 149, 2-[3-(Dimethyl-1,2-oxazol-4-yl)-5-[(2-fluorophenyl)(oxan-4-yl)methyl]-5H-pyrido[3,2-b]indol-7-yl]propan-2-ol]", "IC50": "< 5"},
      {"smiles": "Cc1noc(C)c1-c1cnc2c3ccc(C(C)(C)O)cc3n(C(c3ccccc3F)C3CCOCC3)c2c1", "note": "(single isomer, unassigned) [Example 150, 2-[3-(Dimethyl-1,2-oxazol-4-yl)-5-[(2-fluorophenyl)(oxan-4-yl)methyl]-5H-pyrido[3,2-b]indol-7-yl]propan-2-ol]", "IC50": "< 5"},
      {"smiles": "Cc1noc(C)c1-c1cnc2c3ccc(S(C)(=O)=O)cc3n(C(c3ccccc3)C3CCC(F)(F)CC3)c2c1", "note": "(single isomer, unassigned) [Example 154, 4-{5-[(4,4-Difluorocyclohexyl)(phenyl)methyl]-7-methanesulfonyl-5H-pyrido[3,2-b]indol-3-yl}-3,5-dimethyl-1,2-oxazole]", "IC50": "< 25"},
      {"smiles": "Cc1noc(C)c1-c1cnc2c3ccc(S(C)(=O)=O)cc3n(C(c3ccccc3)C3CCC(F)(F)CC3)c2c1", "note": "(single isomer, unassigned) [Example 155, 4-{5-[(4,4-Difluorocyclohexyl)(phenyl)methyl]-7-methanesulfonyl-5H-pyrido[3,2-b]indol-3-yl}-3,5-dimethyl-1,2-oxazole]", "IC50": "< 25"},
      {"smiles": "Cc1nnn(C)c1-c1cnc2c3ccc(S(C)(=O)=O)cc3n(C(c3ccccc3)C3CCC(F)(F)CC3)c2c1", "note": "(single isomer, unassigned) [Example 156, 5-{5-[(4,4-Difluorocyclohexyl)(phenyl)methyl]-7-methanesulfonyl-5H-pyrido[3,2-b]indol-3-yl}-1,4-dimethyl-1H-1,2,3-triazole]", "IC50": "< 5"},
      {"smiles": "Cc1nnn(C)c1-c1cnc2c3ccc(S(C)(=O)=O)cc3n(C(c3ccccc3)C3CCC(F)(F)CC3)c2c1", "note": "(single isomer, unassigned) [Example 157, 5-{5-[(4,4-Difluorocyclohexyl)(phenyl)methyl]-7-methanesulfonyl-5H-pyrido[3,2-b]indol-3-yl}-1,4-dimethyl-1H-1,2,3-triazole]", "IC50": "< 5"},
      {"smiles": "[2H]C([2H])([2H])c1nnn(C)c1-c1cnc2c3c(S(C)(=O)=O)cc(F)c(F)c3n(C(c3ccccc3)C3CCC(F)(F)CC3)c2c1", "note": "(single isomer, unassigned) [Example 164, 5-{5-[(4,4-Difluorocyclohexyl)(phenyl)methyl]-6,7-difluoro-9-methanesulfonyl-5H-pyrido[3,2-b]indol-3-yl}-4-(^2H3)methyl-1-methyl-1H-1,2,3-triazole]", "IC50": "< 5"},
      {"smiles": "Cc1nnn(C)c1-c1cnc2c3ccc(C(C)(C)N)cc3n(C(c3ccccc3)C3CCOCC3)c2c1", "note": "(single isomer, unassigned) [Example 165, 2-[3-(Dimethyl-1H-1,2,3-triazol-5-yl)-5-[oxan-4-yl(phenyl)methyl]-5H-pyrido[3,2-b]indol-7-yl]propan-2-amine]", "IC50": "< 5"},
      {"smiles": "Cc1nnn(C)c1-c1cnc2c3ccc(C(C)(C)N)cc3n(C(c3ccccc3)C3CCOCC3)c2c1", "note": "(single isomer, unassigned) [Example 166, 2-[3-(Dimethyl-1H-1,2,3-triazol-5-yl)-5-[oxan-4-yl(phenyl)methyl]-5H-pyrido[3,2-b]indol-7-yl]propan-2-amine]", "IC50": "< 5"},
      {"smiles": "Cc1nnn(C)c1-c1cnc2c3ccc(C(C)(C)NC(=O)CN(C)C)cc3n(C(c3ccccc3)C3CCOCC3)c2c1", "note": "(single isomer, unassigned) [Example 167, N-{2-[3-(Dimethyl-1H-1,2,3-triazol-5-yl)-5-[oxan-4-yl(phenyl)methyl]-5H-pyrido[3,2-b]indol-7-yl]propan-2-yl}-2-(dimethylamino)acetamide]", "IC50": "< 5"},
      {"smiles": "Cc1nnn(C)c1-c1cnc2c3ccc(C(C)(C)NC(=O)CN(C)C)cc3n(C(c3ccccc3)C3CCOCC3)c2c1", "note": "(single isomer, unassigned) [Example 168, N-{2-[3-(Dimethyl-1H-1,2,3-triazol-5-yl)-5-[oxan-4-yl(phenyl)methyl]-5H-pyrido[3,2-b]indol-7-yl]propan-2-yl}-2-(dimethylamino)acetamide]", "IC50": "< 5"},
      {"smiles": "Cc1sc(=O)n(C)c1-c1cnc2c3ccc(C(C)(C)O)cc3n(C(c3ccccc3)C3CCOCC3)c2c1", "note": "(single isomer, unassigned) [Example 169, 4-[7-(2-Hydroxypropan-2-yl)-5-[oxan-4-yl(phenyl)methyl]-5H-pyrido[3,2-b]indol-3-yl]-3,5-dimethyl-2,3-dihydro-1,3-thiazol-2-one]", "IC50": "< 5"},
      {"smiles": "Cc1sc(=O)n(C)c1-c1cnc2c3ccc(C(C)(C)O)cc3n(C(c3ccccc3)C3CCOCC3)c2c1", "note": "(single isomer, unassigned) [Example 170, 4-[7-(2-Hydroxypropan-2-yl)-5-[oxan-4-yl(phenyl)methyl]-5H-pyrido[3,2-b]indol-3-yl]-3,5-dimethyl-2,3-dihydro-1,3-thiazol-2-one]", "IC50": "< 1500"},
      {"smiles": "[2H]C([2H])([2H])c1nnn(C)c1-c1cnc2c3c(F)cc(S(C)(=O)=O)cc3n(C(c3ccccc3)C3CCC(F)(F)CC3)c2c1", "note": "(single isomer, unassigned) [Example 199, 5-{5-[(4,4-Difluorocyclohexyl)(phenyl)methyl]-9-fluoro-7-methanesulfonyl-5H-pyrido[3,2-b]indol-3-yl}-4-(^2H3)methyl-1-methyl-1H-1,2,3-triazole]", "IC50": "< 5"},
      {"smiles": "[2H]C([2H])([2H])c1nnn(C)c1-c1cnc2c3c(F)cc(S(C)(=O)=O)cc3n(C(c3ccccc3)C3CCC(F)(F)CC3)c2c1", "note": "(single isomer, unassigned) [Example 200, 5-{5-[(4,4-Difluorocyclohexyl)(phenyl)methyl]-9-fluoro-7-methanesulfonyl-5H-pyrido[3,2-b]indol-3-yl}-4-(^2H3)methyl-1-methyl-1H-1,2,3-triazole]", "IC50": "< 5"},
      {"smiles": "Cc1nnn(C)c1-c1cnc2c3ccc(C(C)(C)O)cc3n(C(c3ccccc3)C3CCC(F)(F)CC3)c2c1", "note": "(single isomer, unassigned) [Example 205]", "IC50": "< 5"},
      {"smiles": "Cc1nnn(C)c1-c1cnc2c3ccc(C(C)(C)O)cc3n(C(c3ccccc3)C3CCC(F)(F)CC3)c2c1", "note": "(single isomer, unassigned) [Example 206]", "IC50": "< 5"},
      {"smiles": "[2H]C([2H])([2H])c1nnn(C)c1-c1cnc2c3c(OC)cc(S(C)(=O)=O)cc3n(C(c3ncccc3F)C3CCC(F)(F)CC3)c2c1", "note": "(single isomer, unassigned) [Example 213, 2-[(4,4-Difluorocyclohexyl)({7-methanesulfonyl-9-methoxy-3-[4-(^2H3)methyl-1-methyl-1H-1,2,3-triazol-5-yl]-5H-pyrido[3,2-b]indol-5-yl})methyl]-3-fluoropyridine]", "IC50": "< 5"},
      {"smiles": "[2H]C([2H])([2H])c1nnn(C)c1-c1cnc2c3c(OC)cc(S(C)(=O)=O)cc3n(C(c3ncccc3F)C3CCC(F)(F)CC3)c2c1", "note": "(single isomer, unassigned) [Example 214, 2-[(4,4-Difluorocyclohexyl)({7-methanesulfonyl-9-methoxy-3-[4-(^2H3)methyl-1-methyl-1H-1,2,3-triazol-5-yl]-5H-pyrido[3,2-b]indol-5-yl})methyl]-3-fluoropyridine]", "IC50": "< 5"},
      {"smiles": "COc1ccc(C(C2CCOCC2)n2c3cc(C(C)(C)O)ccc3c3ncc(-c4c(C)nnn4C)cc32)cc1", "note": "(single isomer, unassigned) [Example 249, 2-[3-(Dimethyl-1H-1,2,3-triazol-5-yl)-5-[(4-methoxyphenyl)(oxan-4-yl)methyl]-5H-pyrido[3,2-b]indol-7-yl]propan-2-ol]", "IC50": "< 5"},
      {"smiles": "COc1ccc(C(C2CCOCC2)n2c3cc(C(C)(C)O)ccc3c3ncc(-c4c(C)nnn4C)cc32)cc1", "note": "(single isomer, unassigned) [Example 250, 2-[3-(Dimethyl-1H-1,2,3-triazol-5-yl)-5-[(4-methoxyphenyl)(oxan-4-yl)methyl]-5H-pyrido[3,2-b]indol-7-yl]propan-2-ol]", "IC50": "< 25"}
    ]}
  ]
}
